Assay results as given in publication PMC5643385, “Probing ligand recognition of the opioid pan antagonist AT-076 at nociceptin, kappa, mu, and delta opioid receptors through structure-activity relationships” (Scientific Reports, 2017).
Read-outs that look alike come from different tables or passages of the source.

Columns and labels:
[1] = target: T1, human KOP receptor (Homo sapiens, UniProt P41145); test: Radioligand competition binding, [3H]U69,593, membranes of transfected CHO cells (Kappa-CN)
[2] = target: T2, human MOP receptor (Homo sapiens, UniProt P35372); test: Radioligand competition binding, [3H]DAMGO, membranes of transfected CHO cells
[3] = target: T3, human DOP receptor (Homo sapiens, UniProt P41143); test: Radioligand competition binding, [3H]DPDPE, membranes of transfected CHO cells
[4] = target: T1, human KOP receptor; test: biochemical
[5] = target: T2, human MOP receptor; test: biochemical
[6] = target: T3, human DOP receptor; test: [35S]GTPγS functional assay (intrinsic activity; Schild analysis vs DPDPE); type: biochemical; conditions: inhibition of agonist-induced [35S]GTPγS binding, read-out: Antagonist Potency (pA2 ± SEM) DOP (converted)
[7] = target: T1, human KOP receptor; parameters: method as in PMID 25635572; conditions: Figure 1; cited from earlier work
[8] = target: T2, human MOP receptor; conditions: read-out: MOP Ki; Figure 1; cited from earlier work
[9] = target: T3, human DOP receptor; conditions: read-out: DOP Ki; Figure 1; cited from earlier work
[10] = target: T4, human NOP receptor (Homo sapiens, UniProt P41146); test: Radioligand competition binding, [3H]N/OFQ, membranes of transfected CHO cells
[11] = target: T4, human NOP receptor; test: [35S]GTPγS functional assay (intrinsic activity; Schild analysis vs N/OFQ); type: biochemical
[12] = test system: NOP; parameters: method as in PMID 16451050; conditions: Figure 1; cited from earlier work
[13] = target: T4, human NOP receptor; parameters: method as in PMID 25635572; conditions: Figure 1; cited from earlier work
[14] = read-out: Receptor Binding, Ki KOP
[15] = read-out: Receptor Binding, Ki MOP
[16] = read-out: Receptor Binding, Ki DOP
[17] = [3H]N/OFQ displacement, Cheng-Prusoff, mean ± SEM, at least three experiments in triplicate, read-out: Receptor Binding, Ki NOP
[18] = [3H]U69,593 displacement, Cheng-Prusoff, mean ± SEM, at least three experiments in triplicate, read-out: Receptor Binding, Ki KOP
[19] = [3H]DAMGO displacement, Cheng-Prusoff, mean ± SEM, at least three experiments in triplicate, read-out: Receptor Binding, Ki MOP

CC(C)[C@@H](CN1CCC(c2cccc(O)c2)CC1)NC(=O)[C@H]1Cc2ccc(O)cc2CN1 [1 (AT-076), (R)-7-hydroxy-N-((S)-1-(4-(3-hydroxyphenyl)piperidin-1-yl)-3-methylbutan-2-yl)-1,2,3,4-tetrahydroisoquinoline-3-carboxamide]
Ki [1, 14]: 1.14 ± 0.63 nM | Ki [2, 15]: 1.67 ± 0.6 nM | Ki [3, 16]: 19.6 ± 1.3 nM | Antagonist Potency (pA2 ± SEM) KOP ([4]; cho cell membranes): 8.366 | Antagonist Potency (pA2 ± SEM) MOP ([5]; cho cell membranes): 9.24 | Kb [6]: 26.9 nM | Ki [7]: 1.14 ± 0.63 nM | Ki [8]: 1.67 ± 0.6 nM | Ki [9]: 19.6 ± 1.3 nM

CC(C)[C@@H](CN1CCC(c2cccc(O)c2)CC1)NC(=O)[C@H]1Cc2ccc(C#N)cc2CN1 [Compound 2, (R)-7-cyano-N-((S)-1-(4-(3-hydroxyphenyl)piperidin-1-yl)-3-methylbutan-2-yl)-1,2,3,4-tetrahydroisoquinoline-3-carboxamide]
Ki [10, 17]: 1890 ± 270 nM | Decrease in KOP binding affinity compared to AT-076 [1]: 6 fold | Ki [1]: 6.73 ± 1.42 nM | Ki [2]: 81.7 ± 12.4 nM | Ki [3]: 73.7 ± 57.9 nM | Profile in Schild analysis KOP [4]: N/C^#

CC(C)[C@@H](CN1CCC(c2cccc(O)c2)CC1)NC(=O)[C@H]1Cc2ccc(CN)cc2CN1 [Compound 3, (R)-7-(aminomethyl)-N-((S)-1-(4-(3-hydroxyphenyl)piperidin-1-yl)-3-methylbutan-2-yl)-1,2,3,4-tetrahydroisoquinoline-3-carboxamide]
Ki [10, 17]: 5540 ± 1150 nM | Decrease in KOP binding affinity compared to AT-076 [1]: > 100 fold | Ki [1, 18]: 118 ± 29 nM | Decrease in MOP binding affinity compared to AT-076 [2]: > 100 fold | Ki [2, 19]: 1490 ± 220 nM | Decrease in DOP binding affinity compared to AT-076 [3]: > 100 fold | Ki [3, 16]: 1570 ± 1130 nM

CC(C)[C@@H](CN1CCC(c2cccc(O)c2)CC1)NC(=O)[C@H]1Cc2ccc(CNC(=N)N)cc2CN1 [Compound 4, (R)-7-(guanidinomethyl)-N-((S)-1-(4-(3-hydroxyphenyl)piperidin-1-yl)-3-methylbutan-2-yl)-1,2,3,4-tetrahydroisoquinoline-3-carboxamide]
Ki [10, 17]: 3260 ± 780 nM | Ki [1, 18]: 129 ± 60 nM | Decrease in KOP binding affinity compared to AT-076 ([1]; vs lead AT-076 (1)): > 100 fold | Ki [2, 19]: 180 ± 70 nM | Decrease in MOP binding affinity compared to AT-076 ([2]; vs lead AT-076 (1)): > 100 fold | Ki [3, 16]: > 10000 nM | Decrease in DOP binding affinity compared to AT-076 ([3]; vs lead AT-076 (1)): > 100 fold

CC(C)[C@@H](CN1CCC(c2cccc(O)c2)CC1)NC(=O)[C@H]1Cc2ccc(CNS(C)(=O)=O)cc2CN1 [Compound 5, (R)-N-((S)-1-(4-(3-hydroxyphenyl)piperidin-1-yl)-3-methylbutan-2-yl)-7-(methylsulfonamidomethyl)-1,2,3,4-tetrahydroisoquinoline-3-carboxamide]
Ki [10, 17]: 7910 ± 1470 nM | Ki [1, 18]: 295 ± 65 nM | Ki [2, 19]: 4400 ± 2350 nM | Ki [3, 16]: > 10000 nM

CC(C)[C@@H](CN1CCC(c2cccc(O)c2)CC1)NC(=O)[C@@H](N)CCCCN [Compound 6, (S)-2,6-diamino-N-((S)-1-(4-(3-hydroxyphenyl)piperidin-1-yl)-3-methylbutan-2-yl)hexanamide]
Ki [10, 17]: > 10000 nM | Ki [1, 18]: 1520 ± 419 nM | Ki [2, 19]: > 10000 nM | Ki [3, 16]: > 10000 nM

CC(C)[C@@H](CN1CCC(c2cccc(O)c2)CC1)NC(=O)[C@@H](N)CCCNC(=N)N [Compound 7, (S)-2-amino-5-guanidino-N-((S)-1-(4-(3-hydroxyphenyl)piperidin-1-yl)-3-methylbutan-2-yl)pentanamide]
Ki [10, 17]: > 10000 nM | Ki [1, 18]: 125 ± 2.4 nM | Ki [2, 19]: 1440 ± 57.6 nM | Ki [3, 16]: > 10000 nM

CC(C)[C@@H](CN1CCC(c2cccc(C#N)c2)CC1)NC(=O)[C@H]1Cc2ccc(O)cc2CN1 [Compound 8, (R)-N-((S)-1-(4-(3-cyanophenyl)piperidin-1-yl)-3-methylbutan-2-yl)-7-hydroxy-1,2,3,4-tetrahydroisoquinoline-3-carboxamide]
Ki [10]: 61.3 ± 14.6 nM | Ki [1]: 3.86 ± 0.09 nM | Ki [2]: 2.93 ± 0.67 nM | Ki [3, 16]: 136 ± 59.7 nM | Kb [4]: 0.269 nM | Kb [5]: 8.13 nM

CC(C)[C@@H](CN1CCC(c2cccc(C#N)c2)CC1)NC(=O)[C@H]1Cc2ccccc2CN1 [Compound 9, (R)-N-((S)-1-(4-(3-cyanophenyl)piperidin-1-yl)-3-methylbutan-2-yl)-1,2,3,4-tetrahydroisoquinoline-3-carboxamide]
Ki [10, 17]: > 10000 nM | Ki [1, 18]: 543 ± 62.2 nM | Ki [2, 19]: 973 ± 21 nM | Ki [3, 16]: > 10000 nM

CC(C)[C@@H](CN1CCC(c2cccc(CN)c2)CC1)NC(=O)[C@H]1Cc2ccc(O)cc2CN1 [Compound 10, (R)-N-((S)-1-(4-(3-(aminomethyl)phenyl)piperidin-1-yl)-3-methylbutan-2-yl)-7-hydroxy-1,2,3,4-tetrahydroisoquinoline-3-carboxamide]
Increase in NOP binding affinity compared to cyano precursor 8 [10]: 2 fold | Ki [10]: 30.7 ± 14.5 nM | Ki [1]: 1.08 ± 0.01 nM | Ki [2]: 0.68 ± 0.28 nM | Ki [3, 16]: 133 ± 24.9 nM | Kb [11]: 132 nM | Kb [4]: 0.38 nM | Kb [5]: 15.5 nM

CC(C)[C@@H](CN1CCC(c2cccc(CN)c2)CC1)NC(=O)[C@H]1Cc2ccccc2CN1 [Compound 11, (R)-N-((S)-1-(4-(3-(aminomethyl)phenyl)piperidin-1-yl)-3-methylbutan-2-yl)-1,2,3,4-tetrahydroisoquinoline-3-carboxamide]
Ki [10, 17]: 202 ± 55.6 nM | Ki [1, 18]: 408 ± 30.8 nM | Ki [2, 19]: 284 ± 75.3 nM | Ki [3, 16]: > 10000 nM

CC(C)[C@@H](CN1CCC(c2cccc(CNC(=O)[C@@H](N)CCCNC(=N)N)c2)CC1)NC(=O)[C@H]1Cc2ccc(O)cc2CN1 [Compound 12, (R)-N-((S)-1-(4-(3-(((S)-2-amino-5-guanidinopentanamido)methyl)phenyl)piperidin-1-yl)-3-methylbutan-2-yl)-7-hydroxy-1,2,3,4-tetrahydroisoquinoline-3-carboxamide]
Ki [10]: 6.04 ± 1.32 nM | Ki [1]: 2.11 ± 0.52 nM | Ki [2]: 5.67 ± 2.38 nM | Ki [3]: 53.6 ± 7.12 nM | Kb [11]: 5.01 nM | Kb [4]: 0.158 nM | Kb [5]: 0.692 nM

CC(C)[C@@H](CN1CCC(c2cccc(CNC(=O)[C@@H](N)CCCNC(=N)N)c2)CC1)NC(=O)[C@H]1Cc2ccccc2CN1 [Compound 13, (R)-N-((S)-1-(4-(3-(((S)-2-amino-5-guanidinopentanamido)methyl)phenyl)piperidin-1-yl)-3-methylbutan-2-yl)-1,2,3,4-tetrahydroisoquinoline-3-carboxamide]
Ki [10]: 43.3 ± 19.1 nM | Ki [1]: 56.1 ± 5.38 nM | Ki [2, 19]: 408 ± 37.3 nM | Ki [3, 16]: > 10000 nM

CC(C)[C@@H](CN1CCC(C2CCCCC2)CC1)NC(=O)[C@H]1Cc2ccc(O)cc2CN1 [Compound 14, (R)-N-((S)-1-(4-cyclohexylpiperidin-1-yl)-3-methylbutan-2-yl)-7-hydroxy-1,2,3,4-tetrahydroisoquinoline-3-carboxamide]
Ki [10]: 84.4 ± 13.6 nM | Binding selectivity for KOP over DOP [1]: 49 fold | Binding selectivity for KOP over MOP [1]: 11 fold | Binding selectivity for KOP over NOP [1]: 333 fold | Higher KOP affinity than AT-076 [1]: 2–4 fold | Ki [1]: 0.253 ± 0.015 nM | Ki [2]: 2.79 ± 0.28 nM | Ki [3]: 12.4 ± 8 nM | Kb [4]: 0.0347 nM | Kb [5]: 0.692 nM | Kb [6]: 42.3 nM

CC(C)[C@@H](CN1CCC(N2CCc3ccccc32)CC1)NC(=O)[C@H]1Cc2ccc(O)cc2CN1 [Compound 16, (R)-7-hydroxy-N-((S)-1-(4-(indolin-1-yl)piperidin-1-yl)-3-methylbutan-2-yl)-1,2,3,4-tetrahydroisoquinoline-3-carboxamide]
Ki [10, 17]: 566 ± 129 nM | Ki [3, 16]: 138 ± 45 nM

O=C(NCCCN1CCC2(CC1)OCc1ccccc12)C1CCCN1Cc1ccccc1 (stereo not drawn) [Compound C-24]
IC50 [12]: 0.27 ± 0.038 nM

CC(C)[C@@H](CN1CC[C@@](C)(c2cccc(O)c2)[C@@H](C)C1)NC(=O)[C@H]1Cc2ccc(O)cc2CN1 [JDTic, reference compound]
Ki ([10]; read-out: Receptor Binding, Ki NOP): 16.7 ± 0.76 nM | Ki [13]: 16.7 ± 0.76 nM

Cc1cccc2c1CC[C@H](CN1CCC(c3c(Cl)cccc3Cl)CC1)C[C@@H]2O [SB-612111, reference compound]
Ki [1, 14]: 541 ± 36.3 nM | Ki [2, 15]: 623 ± 156 nM | Ki [3, 16]: 2890 ± 532 nM
